In data set [1] the test system is OAcGD2 expression in MDA-MB-231 GD3S+ cells. Nature of the data set: OAcGD2 immunocytochemistry and confocal microscopy after CERK inhibitor or siRNA. The format is cell-based, human. The conditions noted are these: 1 μM NVP231, 2, 4, 6, 8, 20, 24 or 48 hours; increase from 2 to 8 hours, decrease after 8 hours. Here is the method: (§1) Transfections were performed with 10 μM of siRNA control non-targeting (D001810-10-20, Horizon), siRNA targeting CASD1 (L-016926-01-0010, Horizon), or two different siRNA targeting CERK: CERK2 (D-004061-02-0010, Horizon), or CERK4 ([…], Horizon) and 4 μL of RNAimax (#137781, Thermo fischer Scientific) in 500 μL of UltraMEM (Lonza). In 6-well plates, 150,000 cells were grown in 1,5 mL of DMEM and transfection mix. Cells were collected 72 hours after transfection for qPCR or immunocytochemistry experiments.
Cells were seeded in 6-well plates (150,000 cells/well) with coverslips in 2 mL of DMEM medium. After 24 hours, the medium was replaced with DMEM containing 1 μM of the CERK inhibitor NVP231 (SigmaN9289). After 2 h, 4 h, 6 h, 8 h, 20 h, 24 h or 48 h of CERK inhibitor treatment, cells were collected for immunocytochemistry experiments.
Transfected cells were grown on glass coverslips and were fixed for 20 min in 4% paraformaldehyde. Cells were washed three times with PBS 1X and membrane permeabilization was performed in 5 μg/mL digitonine in PBS 1X for 20 min. After 3 washes, cells were saturated in PBS 1X-BSA 0.5% blocking buffer. […] The green fluorescence was acquired with λex=488 nm and λem=500-530 nm, DAPI with λex=350 nm and λem=460 nm. […] Mean fluorescence intensity was calculated with macro using ImageJ.

In the next data set the test system is MDA-MB-231 GD3S+ cells. The data set is described as follows: Transwell migration assay. The conditions noted are these: 1 μM NVP231, 24 hours, vs untreated. The format is cell-based, human. The protocol: as §1
Cells were seeded in 12-well plates containing migration chamber in serum-free medium. Below the chamber, medium with serum was added into the wells in the presence or absence of 1 μM of NVP231. After 24 hours incubation at 37° C., wells were fixed with 4% paraformaldehyde and non-migratory cells were swapped with cotton swabs. Cells were washed three times and nuclei were stained with DAPI. Membranes were cut out and mounted between glass slide and coverslip with fluorescent mounting medium. Nuclei were counted using A1 Nikon confocal microscopy.

In data set [2] the test system is OAcGD2 expression in MDA-MB-231 GD3S+ cells. The data set is described as follows: siRNA screen, OAcGD2 immunofluorescence (8B6 mAb) with automated imaging. The format is cell-based, human. The conditions noted are these: fixed cells treated with NaOH 0.1M before primary antibody staining, compared to siNT transfected wells. Here is the method:
2.5 μL/well of 500 nM siGenome siRNA (Dharmacon/Horizon) was printed into blackwalled 384 well cell carrier ultra plates (Perkin Elmer) with Velocity 11 (Agilent) as described before (Chia et al., 2012, Mol. Syst. Biol., 8: 629.). Reverse siRNA transfection was performed by pre-mixing 0.1 μL of Dharmafect 1 transfection reagent (#T-2001-03, Horizon) with 7.4 μL of Optimem for 5 minutes. Addition of mixture to the siRNA plate was then performed with small multidrop combi cassette (Thermo-Fisher) and was left for complexation for 20 minutes with shaking. Addition of 2750 cells in 40 μL of DMEM supplemented with 10% FCS per well was then performed with multidrop combi standard cassette at medium speed (Thermo-Fisher). siRNA targeting-GD2S (L-011279-00-0020, Horizon), Polo like kinase 1 (PLK1; L-003290-00-0020, Horizon) and […] (D-001810-10-20, Horizon) were used as screen controls.
After 72 h of incubation, transfected cells were fixed with 50 μL per well of 4% paraformaldehyde in 2% sucrose and 0.1M sodium phosphate buffer, […] at 37° C. […]
An OAcGD2 expression metric was derived with total cell thresholded fluorescence intensity obtained by immunodetection with 8B6 mAb in MDA-MB-231 GD3S+cells and was normalized with Hoeschst nuclei counts. […]

The conditions of data set [3]: attributed to GD2 expression in healthy peripheral nerve fibers; cited from earlier work.

With `O=C(Nc1nc2ccc(NC(=O)C34CC5CC(CC(C5)C3)C4)cc2s1)c1ccccc1` [CERK inhibitor, NVP231], in data set [1], the “OAcGD2 expression (mean fluorescence intensity)” value is “transitory overexpression”. Further, the “migration capacity of the cells” value in the data set with MDA-MB-231 GD3S+ cells was “no effect”.

Regarding `[Na+].[OH-]` [NaOH, Sodium hydroxide], the OAcGD2 staining result in data set [2] is recorded as “abolished”.

B1: Dinutuximab: anti-GD2 monoclonal antibody approved for pediatric high-risk neuroblastoma (antibody, chains of the INN, looked up, V domains shown)
VH: EVQLLQSGPELEKPGASVMISCKASGSSFTGYNMNWVRQNIGKSLEWIGAIDPYYGGTSYNQKFKGRATLTVDKSSSTAYMHLKSLTSEDSAVYYCVSGMEYWGQGTSVTVSS
VL: EIVMTQSPATLSVSPGERATLSCRSSQSLVHRNGNTYLHWYLQKPGQSPKLLIHKVSNRFSGVPDRFSGSGSGTDFTLKISRVEAEDLGVYFCSQSTHVPPLTFGAGTKLELK
On to B1, for which the side effects entry in data set [3] was “severe side effects”.

Values taken from patent US20240142457A1, “USE OF CASD1 AS A BIOMARKER OF A CANCER EXPRESSING THE O-ACETYLATED-GD2 GANGLIOSIDE” (OGD2 PHARMA, priority 2021, published 2024).
